# Experimental data taken from patent US7153869B2, “Substituted amino acids as erythropoietin mimetics” (priority 1998, dated 2006).
# Read-outs that look alike come from different tables or passages of the source.
# Molecular target: T1, EBP-Ig (N-terminal 225 amino acids of the human EPO receptor joined to an Ig heavy chain) (Homo sapiens, UniProt P19235)
# T1 construct: Ig heavy chain (fusion partner); made in house; host or cells: NSO cells (secreted into conditioned media)
# T1 sequence (P19235 25-250 limits assumed): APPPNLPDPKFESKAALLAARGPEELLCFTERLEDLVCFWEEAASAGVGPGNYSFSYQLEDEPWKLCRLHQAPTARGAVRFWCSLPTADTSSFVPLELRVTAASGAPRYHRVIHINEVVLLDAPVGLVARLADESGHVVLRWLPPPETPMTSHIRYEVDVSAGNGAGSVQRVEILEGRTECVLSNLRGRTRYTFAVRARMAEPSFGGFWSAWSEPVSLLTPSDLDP
# Assay: Inhibition of [125I]EPO binding to immobilized EBP-Ig (EPO binding protein-Ig), scintillation Flash plate competition assay
# Settings: for IC30 μM (Inhibition of EPO binding to EBP-Ig): 0–500 μM test compound; for % inh @ 50 μM (Inhibition of EPO binding to EBP-Ig): 50 μM test compound, average % inhibition
# [1] = read-out: IC50, μM (Inhibition of EPO binding to EBP-Ig), 0.5 nM [125I]EPO, concentration reducing corrected total binding to 50%
# [2] = read-out: % inh @ 50 μM (Inhibition of EPO binding to EBP-Ig)
smiles,measurement,setting,value
CC(C)(CC(=O)O)CC(=O)NCCCCC(C(=O)NCCOCCOCCNC(=O)C(CCCCNC(=O)CC(C)(C)CC(=O)O)N(Cc1ccc(OCc2ccccc2)cc1)Cc1ccc(OCc2ccccc2)cc1)N(Cc1ccc(OCc2ccccc2)cc1)Cc1ccc(OCc2ccccc2)cc1 (stereo not drawn) [compound 264],IC30 μM (Inhibition of EPO binding to EBP-Ig),0.5 nM [125I]EPO,1.5 µM
same,EPO/EBP-Ig % inh @ 50 μM,"50 μM compound, Table 13",89%
same,% inh @ 50 μM (Inhibition of EPO binding to EBP-Ig),0.5 nM [125I]EPO,89%
same,IC50,[1],8 µM
CC(=O)O.COC(=O)[C@H](CO)N(C/C=C/c1ccccc1)C/C=C/c1ccccc1 [compound 310],EPO/EBP-Ig % inh @ 50 μM,"50 μM compound, Table 16A",34%
COC(=O)[C@H](COC(C)(C)C)N(C/C=C/c1cccc(Oc2cccc(C(F)(F)F)c2)c1)C/C=C/c1cccc(Oc2cccc(C(F)(F)F)c2)c1 [compound 292],EPO/EBP-Ig % inh @ 50 μM,"50 μM compound, Table 16A",11%
O=C(NCCCC[C@H](NC/C=C/c1ccc(C(F)(F)F)cc1)C(=O)O)OCc1ccccc1Cl.O=C(O)C(F)(F)F [compound 313],EPO/EBP-Ig % inh @ 50 μM,"50 μM compound, Table 18A",28%
CC(C)(C)OC(=O)CC[C@H](NC/C=C/c1ccc(-c2ccccc2)cc1)C(=O)O [compound 340],EPO/EBP-Ig % inh @ 50 μM,"50 μM compound, Table 19A",14%
COC(=O)[C@H](CCC(=O)O)NC/C=C/c1cccc(Oc2ccc(Cl)c(Cl)c2)c1.O=C(O)C(F)(F)F [compound 328],EPO/EBP-Ig % inh @ 50 μM,"50 μM compound, Table 19A",33%
COC(=O)C(CCC(=O)OC(C)(C)C)N(C/C=C/c1cccc2ccccc12)C/C=C/c1cccc2ccccc12 (stereo not drawn) [compound 95],EPO/EBP-Ig % inh @ 50 μM,"Table 6, 50 μM",15%
O=C(O)CN(C/C=C/c1cccc(Oc2ccccc2)c1)C/C=C/c1cccc(Oc2ccccc2)c1 [compound 312],IC30 μM (Inhibition of EPO binding to EBP-Ig),0.5 nM [125I]EPO,10 µM
same,inhibition at 50 µM,[2],45%
same,inhibition at 50 µM,"read-out: EPO/EBP-Ig % inh @ 50 μM, 50 μM compound, Table 17A",45%
same,IC50,[1],85 µM
NCCCCC(C(=O)NCc1ccc(OCC=Cc2ccccc2)cc1)N(CC=Cc1ccccc1)CC=Cc1ccccc1 (stereo not drawn) [compound 220],IC30 μM (Inhibition of EPO binding to EBP-Ig),0.5 nM [125I]EPO,30 µM
same,EPO/EBP-Ig % inh @ 50 μM,"50 μM compound, Table 10",45%
same,% inh @ 50 μM (Inhibition of EPO binding to EBP-Ig),0.5 nM [125I]EPO,45%
same,IC50,[1],50 µM
COc1cccc(CCNC(=O)C(CCCCNC(=O)CCC(=O)O)N(CC=Cc2ccccc2)CC=Cc2ccccc2)c1 (stereo not drawn) [compound 237],IC30 μM (Inhibition of EPO binding to EBP-Ig),0.5 nM [125I]EPO,30 µM
same,inhibition at 50 µM,[2],55%
same,inhibition at 50 µM,"read-out: EPO/EBP-Ig % inh @ 50 μM, 50 μM compound, Table 10",55%
same,IC50,[1],70 µM
CC(C)(C)OC(=O)NCCCCC(C(=O)NCCCCCCCCCCCCNC(=O)C(CCCCNC(=O)OC(C)(C)C)N(Cc1ccc(OCc2ccccc2)cc1)Cc1ccc(OCc2ccccc2)cc1)N(Cc1ccc(OCc2ccccc2)cc1)Cc1ccc(OCc2ccccc2)cc1 (stereo not drawn) [compound 259],EPO/EBP-Ig % inh @ 50 μM,"50 μM compound, Table 13",−13%
CC(C)(C)OC(=O)NCCCCC(C(=O)NCc1ccc(OCC=Cc2ccccc2)cc1)N(CC=Cc1ccccc1)CC=Cc1ccccc1 (stereo not drawn) [compound 216],EPO/EBP-Ig % inh @ 50 μM,"50 μM compound, Table 10",10%
CC(C)(C)OC(=O)NCCCCC(C(=O)O)N(C/C=C/c1ccc([N+](=O)[O-])cc1)C/C=C/c1ccc([N+](=O)[O-])cc1 (stereo not drawn) [compound 179],EPO/EBP-Ig % inh @ 50 μM,"50 μM compound, Table 9",30%
same,% inh @ 50 μM (Inhibition of EPO binding to EBP-Ig),0.5 nM [125I]EPO,30%
COC(=O)C(CCCCN)N(Cc1cccc(OCc2ccccc2)c1)Cc1cccc(OCc2ccccc2)c1 (stereo not drawn) [compound 112],IC30 μM (Inhibition of EPO binding to EBP-Ig),0.5 nM [125I]EPO,2 µM
same,% inh @ 50 μM (Inhibition of EPO binding to EBP-Ig),0.5 nM [125I]EPO,59%
same,EPO/EBP-Ig % inh @ 50 μM,"Table 7, 50 μM",59%
same,IC50,[1],10 µM
"CC(C)(C)OC(=O)CC(C(=O)OC(C)(C)C)N(CC=Cc1cccc(Oc2ccccc2)c1)CC=Cc1cccc(Oc2ccccc2)c1 (stereo not drawn) [cpd 106, N,N-bis(3-Phenoxycinnamyl)Asp(O-t-Bu)-O-t-Bu]",EPO/EBP-Ig % inh @ 50 μM,"Table 6, 50 μM",20%
CC(=O)O.COC(=O)c1cccc(C=CCNC(CCCCNC(=O)OCc2ccccc2)C(=O)OC)c1 (stereo not drawn) [compound 321],IC30 μM (Inhibition of EPO binding to EBP-Ig),0.5 nM [125I]EPO,45 µM
same,EPO/EBP-Ig % inh @ 50 μM,"50 μM compound, Table 18A",42%
same,% inh @ 50 μM (Inhibition of EPO binding to EBP-Ig),0.5 nM [125I]EPO,42%
COC(=O)[C@H](CCC(=O)OC(C)(C)C)NC/C=C/c1ccc(-c2ccccc2)cc1 [compound 335],EPO/EBP-Ig % inh @ 50 μM,"50 μM compound, Table 19A",25%
COC(=O)C(CCCCNC(=O)OCc1ccccc1)N(C/C=C/c1ccc(OC)cc1)C/C=C/c1ccc(OC)cc1 (stereo not drawn) [compound 174],EPO/EBP-Ig % inh @ 50 μM,"50 μM compound, Table 9",23%
CC(C)(C)OC[C@H](NC/C=C/c1cccc(Oc2cccc(C(F)(F)F)c2)c1)C(=O)O [compound 357],EPO/EBP-Ig % inh @ 50 μM,"50 μM compound, Table 20A",12%
CC(C)(C)OC(=O)CC(C(=O)NCCCOCCCCOCCCNC(=O)C(CC(=O)OC(C)(C)C)N(C/C=C/c1cccc(Oc2ccc(C(C)(C)C)cc2)c1)C/C=C/c1cccc(Oc2ccc(C(C)(C)C)cc2)c1)N(C/C=C/c1cccc(Oc2ccc(C(C)(C)C)cc2)c1)C/C=C/c1cccc(Oc2ccc(C(C)(C)C)cc2)c1 (stereo not drawn) [compound 252],EPO/EBP-Ig % inh @ 50 μM,"50 μM compound, Table 12",−4%
COC(=O)[C@H](CCCCNC(=O)OC(C)(C)C)NC/C=C/c1cccc(Oc2ccc(C(C)(C)C)cc2)c1 [compound 317],EPO/EBP-Ig % inh @ 50 μM,"50 μM compound, Table 18A",13%
O=C(O)C(F)(F)F.O=C(O)CC[C@H](NC/C=C/c1cccc(Oc2ccc(Cl)c(Cl)c2)c1)C(=O)O [compound 332],EPO/EBP-Ig % inh @ 50 μM,"50 μM compound, Table 19A",17%
Cc1ccc(S(=O)(=O)Nc2cccc(CN(Cc3cccc(Oc4ccccc4)c3)C(CCC(=O)O)C(=O)NCCOCCOCCNC(=O)C(CCC(=O)O)N(Cc3cccc(NS(=O)(=O)c4ccc(C)cc4)c3)Cc3cccc(Oc4ccccc4)c3)c2)cc1 (stereo not drawn) [compound 250],IC50,,20 µM
same,IC30 μM (Inhibition of EPO binding to EBP-Ig),0.5 nM [125I]EPO,7 µM
same,inhibition at 50 µM,[2],78%
same,inhibition at 50 µM,"read-out: EPO/EBP-Ig % inh @ 50 μM, Table 11, 50 μM",78%
CC(C)(C)OC(=O)CC(C(=O)NCCOCCOCCNC(=O)C(CC(=O)OC(C)(C)C)N(C/C=C/c1cccc(Oc2ccc(C(C)(C)C)cc2)c1)C/C=C/c1cccc(Oc2ccc(C(C)(C)C)cc2)c1)N(C/C=C/c1cccc(Oc2ccc(C(C)(C)C)cc2)c1)C/C=C/c1cccc(Oc2ccc(C(C)(C)C)cc2)c1 (stereo not drawn) [compound 256],EPO/EBP-Ig % inh @ 50 μM,"50 μM compound, Table 12",10%
COC(=O)C(CCCCN)N(C/C=C/c1cccc(Oc2ccc(C(C)(C)C)cc2)c1)C/C=C/c1cccc(Oc2ccc(C(C)(C)C)cc2)c1 (stereo not drawn) [compound 182],EPO/EBP-Ig % inh @ 50 μM,"50 μM compound, Table 9",18%
CC(C)(CC(=O)O)CC(=O)NCCCCC(C(=O)NCCCCCCCCCCCCNC(=O)C(CCCCNC(=O)CC(C)(C)CC(=O)O)N(Cc1ccc(OCc2ccccc2)cc1)Cc1ccc(OCc2ccccc2)cc1)N(Cc1ccc(OCc2ccccc2)cc1)Cc1ccc(OCc2ccccc2)cc1 (stereo not drawn) [compound 268],EPO/EBP-Ig % inh @ 50 μM,"50 μM compound, Table 13",40%
same,% inh @ 50 μM (Inhibition of EPO binding to EBP-Ig),0.5 nM [125I]EPO,40%
NCCCCC(C(=O)NCCc1ccccc1)N(C/C=C/c1cccc(Oc2ccccc2)c1)C/C=C/c1cccc(Oc2ccccc2)c1 (stereo not drawn) [compound 239],IC30 μM (Inhibition of EPO binding to EBP-Ig),0.5 nM [125I]EPO,8 µM
same,EPO/EBP-Ig % inh @ 50 μM,"50 μM compound, Table 10",46%
same,% inh @ 50 μM (Inhibition of EPO binding to EBP-Ig),0.5 nM [125I]EPO,46%
same,IC50,[1],50 µM
O=C(O)CC(C(=O)O)N(Cc1cccc(NCc2ccc(F)cc2)c1)Cc1cccc(Oc2ccccc2)c1 (stereo not drawn) [compound 70],EPO/EBP-Ig % inh @ 50 μM,"Table 4, 50 μM",−8%
CC(C)(C)OC(=O)CC(C(=O)NCCCOCCOCCOCCCNC(=O)C(CC(=O)OC(C)(C)C)N(Cc1ccc(OCc2ccccc2)cc1)Cc1ccc(OCc2ccccc2)cc1)N(Cc1ccc(OCc2ccccc2)cc1)Cc1ccc(OCc2ccccc2)cc1 (stereo not drawn) [compound 242],EPO/EBP-Ig % inh @ 50 μM,"Table 11, 50 μM",1%
COC(=O)[C@H](CCCCNC(=O)OCc1ccccc1)NC/C=C/c1ccccc1 [compound 318],EPO/EBP-Ig % inh @ 50 μM,"50 μM compound, Table 18A",14%
O=C(O)C(F)(F)F.O=C(O)[C@H](CO)NC/C=C/c1cccc(Oc2cccc(C(F)(F)F)c2)c1 [compound 350],EPO/EBP-Ig % inh @ 50 μM,"50 μM compound, Table 20A",23%
COc1ccc(CCNC(=O)C(CCCCNC(=O)Nc2ccccc2)N(C/C=C/c2cccc(Oc3ccccc3)c2)C/C=C/c2cccc(Oc3ccccc3)c2)cc1 (stereo not drawn) [compound 228],EPO/EBP-Ig % inh @ 50 μM,"50 μM compound, Table 10",21%
